According to patent publication US10406239B2, “Water-soluble docetaxel anticancer drug compound and preparation method and use thereof” (NANJING YOUYI MEDICAL TECHNOLOGY CO., LTD, priority 2015, dated 2019):
Marks after values point to notes of the source that are not given here.

Key:
[1] = system: A549 human lung cancer xenografts; assay: Growth inhibition on A549 human lung cancer xenografts in nude mice; assay type: in vivo, BALB/c nude mice; details: for Tumor inhibition rate: by tumor weight; for Tumor weight: tumors excised after 21 days
Experimental: (§1) The dose volume was 0.4 ml per 20 g, that is, the dose was 96 mg/kg. Then, the solution was diluted to other desired concentrations with 0.9% sodium chloride solution.
(§2) Docetaxel injection, manufactured by Jiangsu Hengrui Pharmaceutical Co., Ltd., lot number: 15011215, specification: 0.5 ml: 20 mg. Formulation method: during use, 20 mg of docetaxel injection of the above specification was added to 1.5 ml of a solvent for the docetaxel injection to give a concentration of 10 mg/ml, and then fully diluted with saline to 1 mg/ml. The dose volume was 0.2 ml per 20 g, that is, the dose was 10 mg/kg.
(§3) BALB/c nude mice, provided by Changzhou Kavens Laboratory Animal Co., Ltd. (Experimental Animal Production License: SOCK (Su) 2011-0003), age: 35-40 days, weight: 18-24 g, female.
A549 human lung cancer xenografts in nude mice was established by inoculating human lung cancer A549 cell line subcutaneously to the axillary fossa of nude mice in an amount of 2*10^6 cells/animal.
(§4) Human lung cancer A549 cell line in logarithmic growth phase was prepared into a cell suspension of 1×10^8 cells/ml under aseptic conditions and subcutaneously inoculated to the right axillary fossa of nude mice in a volume of 0.1 ml. The size of the xenograft in the nude mice was measured with a vernier caliper. After the xenografts grew to 100-300 mm^3, the animals were randomly grouped. The anti-tumor effect of the test agents was dynamically observed by measuring the size of the xenografts. The size of the xenografts was measured once every 3 days. The dose volume was 0.4 ml/20 g. Twenty-one days later, the mice were sacrificed and the tumors were surgically excised and weighed. The tumor volume (TV) is calculated by a formula below: TV=½×a×b^2
The relative tumor volume (RTV) is calculated based on the measurements by a formula: RTV=Vt/V0, where V0 is the measured tumor volume upon being caged (i.e., d0) and Vt is the tumor volume at each measurement. The evaluation index of the anti-tumor activity is relative tumor growth rate T/C (%), which is calculated by a formula below: […]
in which TRTV is the RTV of the treatment group; and CRTV is the RTV of the negative control group.
The tumor inhibition rate is calculated by a formula below: […]
Tweight is the average tumor weight of the treatment group; and Cweight is the average tumor weight of the negative control group.

[2] = Effect on body weight of nude mice with A549 human lung cancer xenografts; assay type: in vivo, BALB/c nude mice; details: for Initial body weight: before dosing; for Final body weight: once every 3 days, end of study (21 days)
Experimental: as §1, §2, §3, §4

[3] = XBB-023 24 mg/kg, tail vein, once every 3 days, 7 doses, 21 d
[4] = XBB-023 24 mg/kg, tail vein, once every 3 days, 3 d
[5] = XBB-023 24 mg/kg, tail vein, once every 3 days, 6 d
[6] = XBB-023 24 mg/kg, tail vein, once every 3 days, 9 d
[7] = XBB-023 24 mg/kg, tail vein, once every 3 days, 12 d
[8] = XBB-023 24 mg/kg, tail vein, once every 3 days, 15 d
[9] = XBB-023 24 mg/kg, tail vein, once every 3 days, 18 d
[10] = XBB-023 48 mg/kg, tail vein, once every 3 days, 7 doses, 21 d
[11] = XBB-023 48 mg/kg, tail vein, once every 3 days, 3 d
[12] = XBB-023 48 mg/kg, tail vein, once every 3 days, 6 d
[13] = XBB-023 48 mg/kg, tail vein, once every 3 days, 9 d
[14] = XBB-023 48 mg/kg, tail vein, once every 3 days, 12 d
[15] = XBB-023 48 mg/kg, tail vein, once every 3 days, 15 d
[16] = XBB-023 48 mg/kg, tail vein, once every 3 days, 18 d
[17] = XBB-023 96 mg/kg, tail vein, once every 3 days, 7 doses, 21 d
[18] = XBB-023 96 mg/kg, tail vein, once every 3 days, 3 d
[19] = XBB-023 96 mg/kg, tail vein, once every 3 days, 6 d
[20] = XBB-023 96 mg/kg, tail vein, once every 3 days, 9 d
[21] = XBB-023 96 mg/kg, tail vein, once every 3 days, 12 d
[22] = XBB-023 96 mg/kg, tail vein, once every 3 days, 15 d
[23] = XBB-023 96 mg/kg, tail vein, once every 3 days, 18 d

Substance “Polyethylene Glycol Monomethyl Ether (Mn=1000) Docetaxel-2′-Diglycolate [XBB-023]” has a Tumor volume ([1]; XBB-023 24 mg/kg group, 0 d (baseline)) of 101.08 ± 20.73 mm^3, a Tumor inhibition rate ([1]; XBB-023 24 mg/kg, once every 3 days, 7 doses, 24 mg/kg) of 34.73% and a Tumor weight ([1]; XBB-023 24 mg/kg, once every 3 days) of 0.78 ± 0.22 g. For the same substance, the “RTV (relative tumor volume)” value [1, 3] was 6.39 ± 0.81, the Tumor volume [1, 3] was 660.00 ± 210.71* mm^3 and the “T/C (relative tumor growth rate)” value ([1]; XBB-023 24 mg/kg, tail vein, once every 3 days, 7 doses, 21 d, 24 mg/kg) was 56.30%. For the same substance, the “RTV (relative tumor volume)” value [1, 4] was 2.27 ± 0.52, the “T/C (relative tumor growth rate)” value [1, 4] was 78.90% and the Tumor volume [1, 4] was 232.16 ± 79.30* mm^3. The “RTV (relative tumor volume)” value [1, 5] was 2.38 ± 0.37, the “T/C (relative tumor growth rate)” value [1, 5] was 66.13% and the Tumor volume [1, 5] was 244.45 ± 80.88** mm^3. For the same substance, the “RTV (relative tumor volume)” value [1, 6] was 2.85 ± 0.39, the “T/C (relative tumor growth rate)” value [1, 6] was 61.19% and the Tumor volume [1, 6] was 289.34 ± 82.35** mm^3. For the same substance, the “RTV (relative tumor volume)” value [1, 7] was 3.68 ± 0.51, the “T/C (relative tumor growth rate)” value [1, 7] was 57.80% and the Tumor volume [1, 7] was 371.41 ± 95.01** mm^3. The “RTV (relative tumor volume)” value [1, 8] was 4.91 ± 1.58, the “T/C (relative tumor growth rate)” value [1, 8] was 58.72% and the Tumor volume [1, 8] was 522.84 ± 249.70* mm^3. For the same substance, the “RTV (relative tumor volume)” value [1, 9] was 5.68 ± 1.66, the “T/C (relative tumor growth rate)” value [1, 9] was 58.60% and the Tumor volume [1, 9] was 602.28 ± 288.50** mm^3. It also gave a Tumor volume ([1]; XBB-023 48 mg/kg group, 0 d (baseline)) of 101.49 ± 18.47 mm^3, a Tumor inhibition rate ([1]; XBB-023 48 mg/kg, once every 3 days, 7 doses, 48 mg/kg) of 68.55% and a Tumor weight ([1]; XBB-023 48 mg/kg, once every 3 days) of 0.38 ± 0.14 g. For the same substance, the “RTV (relative tumor volume)” value [1, 10] was 2.90 ± 0.37, the Tumor volume [1, 10] was 299.13 ± 86.76** mm^3 and the “T/C (relative tumor growth rate)” value ([1]; XBB-023 48 mg/kg, tail vein, once every 3 days, 7 doses, 21 d, 48 mg/kg) was 25.56%. For the same substance, the “RTV (relative tumor volume)” value [1, 11] was 1.59 ± 0.35, the “T/C (relative tumor growth rate)” value [1, 11] was 55.23% and the Tumor volume [1, 11] was 159.57 ± 38.77** mm^3. For the same substance, the “RTV (relative tumor volume)” value [1, 12] was 1.80 ± 0.18, the “T/C (relative tumor growth rate)” value [1, 12] was 49.90% and the Tumor volume [1, 12] was 180.89 ± 31.39** mm^3. For the same substance, the “T/C (relative tumor growth rate)” value [1, 13] was 52.80%, the Tumor volume [1, 13] was 245.14 ± 40.82** mm^3 and the “RTV (relative tumor volume)” value [1, 14] was 3.02 ± 0.53. The “T/C (relative tumor growth rate)” value [1, 14] was 47.50%, the Tumor volume [1, 14] was 302.66 ± 60.48 mm^3 and the “RTV (relative tumor volume)” value [1, 15] was 2.61 ± 0.47. For the same substance, the “T/C (relative tumor growth rate)” value [1, 15] was 31.23%, the Tumor volume [1, 15] was 264.78 ± 68.29** mm^3 and the “RTV (relative tumor volume)” value [1, 16] was 2.50 ± 0.37. The “T/C (relative tumor growth rate)” value [1, 16] was 25.76%, the Tumor volume [1, 16] was 257.22 ± 76.37** mm^3 and the Tumor volume ([1]; XBB-023 96 mg/kg group, 0 d (baseline)) was 102.83 ± 14.74 mm^3. The “inhibition rate higher than that in the positive control group” value ([1]; XBB-023 96 mg/kg versus 10 mg/kg docetaxel) was 16.29%, the Tumor inhibition rate ([1]; XBB-023 96 mg/kg, once every 3 days, 7 doses, 96 mg/kg) was 88.45% and the Tumor weight ([1]; XBB-023 96 mg/kg, once every 3 days) was 0.14 ± 0.03 g. For the same substance, the “RTV (relative tumor volume)” value [1, 17] was 1.46 ± 0.32, the Tumor volume [1, 17] was 146.15 ± 20.51** mm^3 and the “T/C (relative tumor growth rate)” value ([1]; XBB-023 96 mg/kg, tail vein, once every 3 days, 7 doses, 21 d, 96 mg/kg) was 12.83%. The “RTV (relative tumor volume)” value [1, 18] was 1.54 ± 0.31, the “T/C (relative tumor growth rate)” value [1, 18] was 53.47% and the Tumor volume [1, 18] was 154.44 ± 15.73** mm^3. For the same substance, the “RTV (relative tumor volume)” value [1, 19] was 1.26 ± 0.15, the “T/C (relative tumor growth rate)” value [1, 19] was 35.11% and the Tumor volume [1, 19] was 129.15 ± 19.29** mm^3. The “RTV (relative tumor volume)” value [1, 20] was 1.54 ± 0.22, the “T/C (relative tumor growth rate)” value [1, 20] was 33.18% and the Tumor volume [1, 20] was 15628 ± 17.71** mm^3. For the same substance, the “RTV (relative tumor volume)” value [1, 21] was 1.54 ± 0.33, the “T/C (relative tumor growth rate)” value [1, 21] was 24.19% and the Tumor volume [1, 21] was 156.91 ± 35.05** mm^3. The “RTV (relative tumor volume)” value [1, 22] was 1.06 ± 0.28, the “T/C (relative tumor growth rate)” value [1, 22] was 12.63% and the Tumor volume [1, 22] was 107.31 ± 27.45** mm^3. For the same substance, the “RTV (relative tumor volume)” value [1, 23] was 1.13 ± 0.21, the “T/C (relative tumor growth rate)” value [1, 23] was 11.66% and the Tumor volume [1, 23] was 114.16 ± 17.61** mm^3. For the same substance, the “effect on the body weight of the experimental mice (in words)” value ([2]; 48 mg/kg XBB-023, P<0.05) was “significant effect”, the “effect on the body weight of the experimental mice (in words)” value ([2]; 96 mg/kg XBB-023, P<0.01) was “Extremely significant effect” and the Initial body weight ([2]; XBB-023 24 mg/kg group) was 22.17 ± 1.57 g. The Final body weight ([2]; XBB-023 24 mg/kg) was 23.17 ± 0.90 g, the Initial body weight ([2]; XBB-023 48 mg/kg group) was 21.33 ± 1.37 g and the Final body weight ([2]; XBB-023 48 mg/kg) was 20.00 ± 0.82 g. It also gave an Initial body weight ([2]; XBB-023 96 mg/kg group) of 22.00 ± 0.82 g and a Final body weight ([2]; XBB-023 96 mg/kg) of 16.00 ± 2.31 g.
